Test results published in BindingDB's records for doi:10.1016/j.bmcl.2015.09.044 (Keio University, 2015).
Residues, ends and D or L forms follow the SMILES beside them.

Assay: Inhibition of M-CSF/sRANKL-induced mouse BMDM differentiation into osteoclast after 72 hrs by TRAP staining-based microscopic analysis

IC50: 780 nM
Structure (SMILES): C#CCCC/C=C(\C)C(=O)N(C)[C@H](C(=O)N(C)[C@H](C(=O)N(C)[C@H](C(=O)N(C)[C@H](C(=O)N1CCC[C@H]1C(=O)N1CCC[C@H]1C(=O)CC)C(C)C)C(C)C)[C@@H](C)CC)[C@@H](C)CC (HELM PEPTIDE1{[C#CCCC/C=C(\C)C(=O)[*:2]].[meI].[meI].[meV].[meV].P.[CCC(=O)[C@@H]1CCCN1[*:1]]}$$$$V2.0)
